Legend:
MMP-2 [1] = test: N-terminomic (TMT) analysis of MMP-treated HEK293 secretome: isotopic enrichment of novel N-termini; format: biochemical, human; conditions: for isotopic enrichment (log2(ratio)): MMP2 cleavages in HEK293 cell proteins, determined by LC-MS/MS, novel N-termini, sections log2(ratio) >3σ, 2σ-3σ, 1σ-2σ, RP above 4.5
Method: (§1) This was done to achieve a reasonable compromise between the false positive and false negative rates based on the statistical model developed by the authors. […] (See Methods for details).
(§2) HEK293 cells were seeded in 150-mm tissue culture dishes (Corning) and grown to confluence. The confluent cultures were washed with PBS several times to remove serum proteins and kept in serum-free DMEM supplemented with 1 μM GM6001 for 72 hours at 37 C, 5% CO2. The conditioned media was centrifuged at 10,000 x g for 30 minutes at 4 C and concentrated ~100-fold using Centricon Plus-70 (AMD Millipore) 3-kDa m.w. cut-off ultrafilter, and the buffer was exchanged to 50 mM HEPES pH 7.0 containing 150 mM NaCl and 10 mM CaCl2 (Reaction Buffer) using a PD-10 desalting column (GE Healthcare). Aliquots containing 240 μg total protein were incubated at 37 C in the presence of 750 nM MMP2 or 9 or the Reaction Buffer alone for 2 hours. Each reaction was carried out in duplicate. The reactions were stopped by addition of 20 mM EDTA and subjected to denaturation/reduction (4M Urea and 10 mM TCEP, 1 h, 22°C) and alkylation (20 mM iodoacetamide, 30 min, 22°C, in dark). […] The TMT-labeled samples were pooled together, and subjected to TCA precipitation (20% TCA, 16 h, 4°C). Each pellet was washed with -20°C acetone, recovered in 50 mM Tris-HCl pH 8.0, and then digested with trypsin/Lys-C (Promega) for 16 h at 37°C. Digestions were stopped with 0.2% TFA and centrifuged to remove insoluble material. The supernatants were then desalted using Sep-Pak C18 cartridge (50 mg), and then lyophilized.
(§3) Dried pooled sample was reconstituted in 20 mM ammonium formate pH ~10 and fractionated using a Waters Acquity BEH C18 column (2.1x 15 cm, 1.7 μm pore size) mounted on an M-Class Ultra Performance Liquid Chromatography (UPLC) system (Waters). […] A total of 32 fractions were collected and pooled in a non-contiguous manner into 16 total fractions. Pooled fractions were dried to completeness in a SpeedVac concentrator prior to mass spectrometry analysis.
(§4) Dried peptide fractions were reconstituted with 2% ACN-0.1% FA and analyzed by LC-MS/MS using a Proxeon EASY nanoLC system (Thermo Fisher Scientific) coupled to a Q-Exactive Plus mass spectrometer (Thermo Fisher Scientific). […] The mass spectrometer was operated in positive data-dependent acquisition mode. MS1 spectra were measured with a resolution of 70,000 (AGC target: 1e6; mass range: 350–1700 m/z).
(§5) The false discovery rate (FDR) filter for spectrum and protein identification was set to 1%. Carbamidomethylation of cysteines was searched as a fixed modification, while oxidation of methionines and N-terminal acetylation were searched as variable modifications. Enzyme was set to trypsin in a semispecific mode and a maximum of two missed cleavages was allowed for searching. To obtain quantification of the TMT-labeled N-termini, two independent searches were performed–one with TMT10plex MS2 N-terminal reporter quantification and the other for quantification of N-terminal and lysine sidechain.

MMP-9 [2] = test: as above; format: biochemical, human; conditions: for isotopic enrichment (log2(ratio)) (acc.to MMP9): HEK293 proteins; for isotopic enrichment (log2(ratio)): MMP9 cleavages in HEK293 cell proteins, determined by LC-MS/MS, log2(ratio) range (>3σ, 2σ-3σ, 1σ-2σ)
Method: as §1, §2, §3, §4, §5

MMP-9 [3] = test: Substrate phage display with NGS: relative probability (RP) of P3-P1' tetramer clusters; format: biochemical, human; conditions: MMP9; RP of the substrate's P3-P1' tetramer, substrate phage display with NGS;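 further: ratio of tetramer probability after protease selection to that in naive phage library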
MMP-2 [4] = target: T1, MMP-2 (Homo sapiens, UniProt P08253); test: K(obs) of individual phage substrates (set of 1369); format: biochemical; conditions: MMP2; individual phage substrate from the set of 1369 peptides; hyphen in the sequence marks the cleavage position
T1 sequence (P08253 110-660): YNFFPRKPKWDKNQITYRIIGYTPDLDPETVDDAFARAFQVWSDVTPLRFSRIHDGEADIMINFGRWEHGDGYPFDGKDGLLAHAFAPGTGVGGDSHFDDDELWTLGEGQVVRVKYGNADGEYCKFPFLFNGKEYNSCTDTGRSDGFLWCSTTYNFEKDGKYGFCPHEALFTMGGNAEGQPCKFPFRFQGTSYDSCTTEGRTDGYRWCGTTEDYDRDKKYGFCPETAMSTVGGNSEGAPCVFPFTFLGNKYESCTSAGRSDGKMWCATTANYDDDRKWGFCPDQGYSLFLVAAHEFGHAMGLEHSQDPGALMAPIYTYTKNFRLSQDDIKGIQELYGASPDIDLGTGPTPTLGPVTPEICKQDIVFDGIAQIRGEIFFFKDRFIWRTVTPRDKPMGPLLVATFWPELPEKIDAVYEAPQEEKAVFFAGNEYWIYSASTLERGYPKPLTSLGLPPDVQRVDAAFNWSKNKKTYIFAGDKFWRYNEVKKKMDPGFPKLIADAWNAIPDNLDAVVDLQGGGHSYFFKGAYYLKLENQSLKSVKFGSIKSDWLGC

MMP-9 [5] = target: MMP-9 (Homo sapiens, UniProt P14780); test: as above; format: biochemical; conditions: MMP9; individual phage substrate of the set of 1369 peptides; dash in sequence marks cleavage position
Chain of MMP-9 (Homo sapiens, UniProt P14780) (P14780 94-707): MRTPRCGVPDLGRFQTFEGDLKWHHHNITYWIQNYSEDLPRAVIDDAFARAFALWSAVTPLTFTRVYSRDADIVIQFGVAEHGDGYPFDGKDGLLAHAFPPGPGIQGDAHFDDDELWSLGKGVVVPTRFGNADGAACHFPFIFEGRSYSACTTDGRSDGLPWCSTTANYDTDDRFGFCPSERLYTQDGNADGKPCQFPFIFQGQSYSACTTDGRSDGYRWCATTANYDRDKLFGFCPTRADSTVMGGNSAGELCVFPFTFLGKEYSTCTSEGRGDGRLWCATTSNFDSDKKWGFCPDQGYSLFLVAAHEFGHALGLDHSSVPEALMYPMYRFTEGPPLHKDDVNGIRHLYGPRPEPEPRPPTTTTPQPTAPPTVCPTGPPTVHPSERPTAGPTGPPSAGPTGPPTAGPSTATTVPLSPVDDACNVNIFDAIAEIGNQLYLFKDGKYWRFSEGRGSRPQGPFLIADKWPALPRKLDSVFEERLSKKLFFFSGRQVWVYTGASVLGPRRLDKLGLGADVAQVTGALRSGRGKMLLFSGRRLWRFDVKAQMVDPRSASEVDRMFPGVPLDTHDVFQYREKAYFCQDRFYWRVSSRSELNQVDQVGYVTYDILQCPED

[6] = MMP2 cleaved HEK293 proteins, common set of MMP2-9 selectome, LC-MS/MS
[7] = MMP9, common set of MMP2-9 selectome, LC-MS/MS
[8] = MS detected cleavage sequence, HEK293 proteins, common MMP2-9 selectome
[9] = MS detected cleavage sequence, common MMP2-9 selectome

Kobs (MMP-2 [4]) [M⁻¹ s⁻¹] | Kobs (MMP-9 [5]) [M⁻¹ s⁻¹] | Substance | relative probability (RP) (MMP-9 [3]) | also measured
– | – | ADIAF-LIDGSF | – | isotopic enrichment (log2(ratio)) (MMP-2 [1]): 1.124 log2(ratio); isotopic enrichment (log2(ratio)) (acc.to MMP2) (MMP-2 [1]; [6]): 1.124; isotopic enrichment (log2(ratio)) (acc.to MMP9) (MMP-9 [2]; [7]): 0.8797
– | – | AGAAA-LSSASS | – | isotopic enrichment (log2(ratio)) (acc.to MMP2) (MMP-2 [1]; [6]): 2.491; isotopic enrichment (log2(ratio)) (acc.to MMP2) (MMP-2 [1]; [8]): 2.491 log2(ratio); isotopic enrichment (log2(ratio)) (acc.to MMP9) (MMP-9 [2]; [7]): 3.911; isotopic enrichment (log2(ratio)) (MMP-9 [2]): 3.911; isotopic enrichment (log2(ratio)) (acc.to MMP9) (MMP-9 [2]; [9]): 3.911 log2(ratio)
– | – | AGARG-IQGPQG | – | isotopic enrichment (log2(ratio)) (acc.to MMP2) (MMP-2 [1]; [8]): 0.8156 log2(ratio); isotopic enrichment (log2(ratio)) (MMP-9 [2]): 1.521; isotopic enrichment (log2(ratio)) (acc.to MMP9) (MMP-9 [2]; [9]): 1.521 log2(ratio)
– | – | APPAA-VAAVAG | – | isotopic enrichment (log2(ratio)) (acc.to MMP2) (MMP-2 [1]; [8]): 2.4957 log2(ratio); isotopic enrichment (log2(ratio)) (MMP-9 [2]): 1.731; isotopic enrichment (log2(ratio)) (acc.to MMP9) (MMP-9 [2]; [9]): 1.731 log2(ratio)
– | – | ARPNS-MVVEHP | – | isotopic enrichment (log2(ratio)) (acc.to MMP2) (MMP-2 [1]; [6]): 2.409; isotopic enrichment (log2(ratio)) (acc.to MMP2) (MMP-2 [1]; [8]): 2.409 log2(ratio); isotopic enrichment (log2(ratio)) (acc.to MMP9) (MMP-9 [2]; [7]): 3.297; isotopic enrichment (log2(ratio)) (MMP-9 [2]): 3.297; isotopic enrichment (log2(ratio)) (acc.to MMP9) (MMP-9 [2]; [9]): 3.297 log2(ratio)
– | – | DAPRA-VFPSIV | – | isotopic enrichment (log2(ratio)) (acc.to MMP2) (MMP-2 [1]; [6]): 1.669; isotopic enrichment (log2(ratio)) (acc.to MMP2) (MMP-2 [1]; [8]): 1.669 log2(ratio); isotopic enrichment (log2(ratio)) (acc.to MMP9) (MMP-9 [2]; [7]): 1.811; isotopic enrichment (log2(ratio)) (MMP-9 [2]): 1.811; isotopic enrichment (log2(ratio)) (acc.to MMP9) (MMP-9 [2]; [9]): 1.811 log2(ratio)
– | – | DMAAA-MKAVTE | – | isotopic enrichment (log2(ratio)) (MMP-2 [1]): 1.766 log2(ratio); isotopic enrichment (log2(ratio)) (acc.to MMP2) (MMP-2 [1]; [6]): 1.766; isotopic enrichment (log2(ratio)) (acc.to MMP9) (MMP-9 [2]; [7]): 1.328
10866.7 | 12792.1 | TLIRY-LTASG | 33.2843 | –
12792.1 | 654.784 | TMLLA-LTASG | 6.729 | –
2409.72 | 10866.7 | TNVFW-YTASG | 29.291 | –
12792.1 | 12792.1 | TPPSS-LTASG | 46.2595 | –
12792.1 | 12792.1 | TPPVE-LTASG | 35.1044 | –
12792.1 | 9740.44 | TQPSP-FTASG | 37.3217 | –
323.705 | 1112.44 | TSARK-LTASG | 0 | –
12792.1 | 690.17 | TSPGL-LTASG | 19.6268 | –
12792.1 | 690.17 | TVLGN-LTASG | 10.3813 | –
1071.29 | 12792.1 | TVPWS-VTASG | 31.0554 | –
8941.32 | 912.511 | VDVSF-LTASG | 1.252 | –
5090.5 | 4922.1 | VEAVA-ITASG | 21.5568 | –
2476.66 | 8321.48 | VFPQG-MTASG | 46.1377 | –
12792.1 | 12792.1 | VGPAF-LTASG | 38.454 | –
12792.1 | 12792.1 | VKPSG-VTASG | 31.8733 | –
12792.1 | 12792.1 | VKPSK-LTASG | 38.9571 | –

Kobs (MMP-2 [4]) [M⁻¹ s⁻¹] | Kobs (MMP-9 [5]) [M⁻¹ s⁻¹] | Substance | relative probability (RP) (MMP-9 [3]) | also measured
8321.48 | 386.839 | VLFGA-LTASG | 2.95 | –
12792.1 | 690.17 | VLLGN-FTASG | 0.6963 | –
8321.48 | 12792.1 | VMPSG-FTASG | 36.6478 | –
12792.1 | 1030.73 | VQLAY-FTASG | 0.5079 | –
12792.1 | 12792.1 | VVPNN-LTASG | 38.7188 | –
8941.32 | 1239.69 | VYPGK-MTASG | 16.9669 | –
4922.1 | 551.253 | WAINA-LTASG | 1.369 | –
12792.1 | 9740.44 | WDIRS-LTASG | 30.8005 | –
1112.44 | 4613.14 | WGTLA-LTASG | 8.919 | –
12792.1 | 8941.32 | WNPSY-LTASG | 40.8983 | –
12792.1 | 12792.1 | WQVRY-LTASG | 32.3577 | –
12792.1 | 12792.1 | WRPFS-YTASG | 43.4281 | –
12792.1 | 3344.37 | WSPSS-YTASG | 41.6306 | –
231.616 | 2409.72 | WTPRG-NTASG | 15.8425 | –
12792.1 | 10866.7 | WYPSK-LTASG | 38.9571 | –
12792.1 | 2545.25 | YASIR-TASGA | 0.562 | –
12792.1 | 12792.1 | YGPRA-ITASG | 47.8426 | –
12792.1 | 12792.1 | YGPSL-LTASG | 32.4935 | –
12792.1 | 12792.1 | YHPIS-LTASG | 42.7806 | –
0 | 1239.69 | YIPLV-YTASG | 9.417 | –
12792.1 | 9740.44 | YIPTA-FTASG | 24.5969 | –
12792.1 | 12792.1 | YKPVY-YTASG | 30.5191 | –
12792.1 | 1239.69 | YSTLR-TASGA | 0 | –
